Experimental data from patent US8524755B2 (priority 2009, dated 2013).

Assays:
guanylyl cyclase (basal) = molecular target: T1, guanylyl cyclase (basal) (Bos taurus, UniProt P16068+P19687); assay: Enzyme assay guanylyl cyclase (basal); type: biochemical, bovine
T1 construct: bovine lung; from tissue; host or cells: bovine lung
T1 sequence (P19687 1-691): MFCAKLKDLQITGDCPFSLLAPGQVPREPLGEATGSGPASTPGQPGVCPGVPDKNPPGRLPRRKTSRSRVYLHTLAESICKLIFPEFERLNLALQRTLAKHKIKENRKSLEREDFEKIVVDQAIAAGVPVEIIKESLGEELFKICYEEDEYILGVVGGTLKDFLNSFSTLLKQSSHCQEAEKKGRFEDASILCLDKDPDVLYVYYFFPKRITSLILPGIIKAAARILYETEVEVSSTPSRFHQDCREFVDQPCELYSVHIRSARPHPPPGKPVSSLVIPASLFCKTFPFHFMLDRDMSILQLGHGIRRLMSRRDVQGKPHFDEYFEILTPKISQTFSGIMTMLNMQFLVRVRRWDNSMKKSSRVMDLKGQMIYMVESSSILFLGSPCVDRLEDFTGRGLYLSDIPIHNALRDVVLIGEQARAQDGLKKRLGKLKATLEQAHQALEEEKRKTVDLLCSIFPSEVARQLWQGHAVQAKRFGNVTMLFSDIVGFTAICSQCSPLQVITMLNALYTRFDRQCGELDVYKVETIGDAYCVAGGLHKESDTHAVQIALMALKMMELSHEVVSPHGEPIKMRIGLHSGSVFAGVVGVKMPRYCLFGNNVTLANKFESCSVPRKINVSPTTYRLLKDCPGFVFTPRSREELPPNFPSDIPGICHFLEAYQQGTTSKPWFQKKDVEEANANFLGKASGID
T1 sequence (P16068 1-619): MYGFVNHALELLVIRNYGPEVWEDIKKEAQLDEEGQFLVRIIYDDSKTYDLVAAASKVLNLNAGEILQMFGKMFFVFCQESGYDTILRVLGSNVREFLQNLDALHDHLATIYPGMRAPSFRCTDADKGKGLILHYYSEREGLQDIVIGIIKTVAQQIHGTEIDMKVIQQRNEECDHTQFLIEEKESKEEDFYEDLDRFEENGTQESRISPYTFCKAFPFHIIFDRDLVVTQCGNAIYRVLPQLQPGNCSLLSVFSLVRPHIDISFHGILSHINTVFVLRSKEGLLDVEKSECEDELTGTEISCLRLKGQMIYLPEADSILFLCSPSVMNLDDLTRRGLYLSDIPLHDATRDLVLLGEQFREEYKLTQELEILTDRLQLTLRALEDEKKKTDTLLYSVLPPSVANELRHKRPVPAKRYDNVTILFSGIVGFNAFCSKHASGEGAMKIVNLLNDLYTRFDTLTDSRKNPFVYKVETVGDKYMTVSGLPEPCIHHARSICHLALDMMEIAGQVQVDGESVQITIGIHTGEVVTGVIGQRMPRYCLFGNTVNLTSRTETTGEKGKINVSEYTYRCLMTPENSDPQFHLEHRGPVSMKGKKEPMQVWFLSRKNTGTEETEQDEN
Description: (§1) The enzyme assays provided below will be familiar to those skilled in the art.
(§2) Analysis and Expression of Results: The results are expressed as a percent of control specific activity ((measured specific activity/control specific activity)×100) obtained in the presence of the test compounds.

Neuropeptide Y (ns) = assay: Binding Y (ns) (ag); parameters: species or system rat
Description: (§3) Radioligand binding assay methods utilized to measure the activity of compounds of the invention will be familiar to those skilled in the art. In each assay case, the assay components such as, for example, the cell-type, ligand, reference compound and the like, will be familiar to practitioners of such an assay.
(§4) Analysis and Expression of Results: Compounds of the invention were tested in the biochemical assays and percent inhibition of specific binding was determined. The specific ligand binding to the receptors is defined as the difference between the total binding and the nonspecific binding determined in the presence of an excess of unlabelled ligand. The results are expressed as a percent inhibition of control specific binding (100−((measured specific binding/control specific binding)×100)) obtained in the presence of test compounds.

KV channel = assay: Binding KV channel (aa); parameters: species or system rat
Description: as §3, §4

[1] = test system: Ca^2+ channel (L, dihydropyridine site); assay: Binding Ca2+ channel (L, dihydropyridine site) (aa); parameters: species or system rat
Description: as §3, §4

Na^+ channel (site 2) = assay: Binding Na+ channel (site 2) (aa); parameters: species or system rat
Description: as §3, §4

BLT1 (LTB4) (h) = molecular target: T2, BLT1 (LTB4) (h) (Homo sapiens, UniProt Q15722); assay: Binding BLT1 (LTB4) (h) (ag); details: read-out: % Inhibition of Control Specific Binding @ 10 μM
T2 construct: expressed in transfected cells; host or cells: CHO cells
T2 sequence (Q15722 whole entry): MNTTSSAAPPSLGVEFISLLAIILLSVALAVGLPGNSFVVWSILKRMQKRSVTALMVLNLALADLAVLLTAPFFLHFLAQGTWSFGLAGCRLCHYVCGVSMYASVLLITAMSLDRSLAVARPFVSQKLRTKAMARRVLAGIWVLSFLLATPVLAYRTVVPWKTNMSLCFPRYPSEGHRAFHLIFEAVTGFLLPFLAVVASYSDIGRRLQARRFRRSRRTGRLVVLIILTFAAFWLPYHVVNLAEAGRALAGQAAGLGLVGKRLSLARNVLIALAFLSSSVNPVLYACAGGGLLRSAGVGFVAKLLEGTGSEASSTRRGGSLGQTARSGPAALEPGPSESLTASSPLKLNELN
Description: as §3, §4

Melanocortin MC4 (h) = molecular target: T3, Melanocortin MC4 (h) (Homo sapiens, UniProt P32245); assay: Binding MC4 (h) (ag); details: read-out: % Inhibition of Control Specific Binding @ 10 μM
T3 construct: expressed in transfected cells; host or cells: CHO cells
T3 sequence (P32245 whole entry): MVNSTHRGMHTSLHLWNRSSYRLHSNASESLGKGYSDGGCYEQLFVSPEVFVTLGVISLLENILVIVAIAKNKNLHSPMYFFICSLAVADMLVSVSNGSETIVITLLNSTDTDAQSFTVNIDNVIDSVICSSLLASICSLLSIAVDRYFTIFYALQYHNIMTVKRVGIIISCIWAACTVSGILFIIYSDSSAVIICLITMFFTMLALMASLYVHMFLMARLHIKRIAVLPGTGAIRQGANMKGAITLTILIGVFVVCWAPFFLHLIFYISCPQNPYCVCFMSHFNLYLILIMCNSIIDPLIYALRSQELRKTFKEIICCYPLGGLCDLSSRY
Description: as §3, §4

Adrenergic α1 (ns) = assay: Binding α1 (ns) (aa); parameters: species or system rat
Description: as §3, §4

[2] = molecular target: T4, N neuronal α-BGTX-insensitive (α4β2) (Rattus norvegicus, UniProt P09483+P12390); assay: Binding N neuronal α-BGTX-insensitive (α4β2) (ag); details: read-out: % Inhibition of Control Specific Binding @ 10 μM
T4 construct: rat cerebral cortex; from tissue; host or cells: rat cerebral cortex
T4 sequence (P09483 31-630): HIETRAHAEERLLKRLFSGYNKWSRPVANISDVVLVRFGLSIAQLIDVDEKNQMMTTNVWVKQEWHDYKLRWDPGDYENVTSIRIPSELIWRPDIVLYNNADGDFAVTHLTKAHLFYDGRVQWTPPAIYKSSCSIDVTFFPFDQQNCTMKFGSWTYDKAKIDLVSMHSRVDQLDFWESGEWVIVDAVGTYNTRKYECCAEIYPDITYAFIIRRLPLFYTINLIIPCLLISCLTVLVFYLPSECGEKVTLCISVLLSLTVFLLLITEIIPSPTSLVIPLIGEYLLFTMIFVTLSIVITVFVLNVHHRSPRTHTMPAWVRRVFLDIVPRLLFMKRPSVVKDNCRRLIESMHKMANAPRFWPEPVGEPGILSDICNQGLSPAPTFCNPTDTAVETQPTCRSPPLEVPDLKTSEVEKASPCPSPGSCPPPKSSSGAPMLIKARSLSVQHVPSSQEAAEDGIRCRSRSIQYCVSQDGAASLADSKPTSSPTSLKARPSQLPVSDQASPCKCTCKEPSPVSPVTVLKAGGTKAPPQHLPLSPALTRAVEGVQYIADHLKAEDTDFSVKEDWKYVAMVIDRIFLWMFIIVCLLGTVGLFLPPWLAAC
T4 sequence (P12390 25-500): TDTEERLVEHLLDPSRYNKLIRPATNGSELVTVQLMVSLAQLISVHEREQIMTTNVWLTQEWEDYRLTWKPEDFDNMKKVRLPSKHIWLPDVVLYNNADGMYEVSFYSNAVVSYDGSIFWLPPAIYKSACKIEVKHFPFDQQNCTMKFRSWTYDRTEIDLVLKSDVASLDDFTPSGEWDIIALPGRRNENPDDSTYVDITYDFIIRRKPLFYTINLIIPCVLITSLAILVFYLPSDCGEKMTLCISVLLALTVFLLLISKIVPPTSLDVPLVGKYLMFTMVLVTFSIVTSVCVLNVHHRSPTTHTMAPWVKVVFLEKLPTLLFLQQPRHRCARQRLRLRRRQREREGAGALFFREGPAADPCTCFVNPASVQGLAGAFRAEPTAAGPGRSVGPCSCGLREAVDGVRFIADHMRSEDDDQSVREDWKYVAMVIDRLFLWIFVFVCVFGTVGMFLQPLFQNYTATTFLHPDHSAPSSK
Description: as §3, §4

Dopamine D3 (h) = molecular target: T5, Dopamine D3 (h) (Homo sapiens, UniProt P35462); assay: Binding D3 (h) (aa); details: read-out: % Inhibition of Control Specific Binding @ 10 μM
T5 construct: expressed in transfected cells; host or cells: CHO cells
T5 sequence (P35462 whole entry): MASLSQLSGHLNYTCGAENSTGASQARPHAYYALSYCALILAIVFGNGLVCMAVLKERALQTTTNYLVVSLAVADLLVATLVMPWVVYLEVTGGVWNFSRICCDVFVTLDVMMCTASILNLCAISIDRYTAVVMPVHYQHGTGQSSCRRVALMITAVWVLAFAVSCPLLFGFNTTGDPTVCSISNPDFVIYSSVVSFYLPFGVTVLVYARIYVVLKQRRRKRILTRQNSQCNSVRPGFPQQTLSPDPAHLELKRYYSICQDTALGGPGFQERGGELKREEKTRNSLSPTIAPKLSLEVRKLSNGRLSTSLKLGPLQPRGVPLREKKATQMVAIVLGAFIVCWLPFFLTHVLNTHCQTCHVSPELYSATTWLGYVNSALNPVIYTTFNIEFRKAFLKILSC
Description: as §3, §4

P2Y = assay: Binding P2Y (ag); parameters: species or system rat
Description: as §3, §4

Endothelin ETA (h) = molecular target: T6, Endothelin ETA (h) (Homo sapiens, UniProt P25101); assay: Binding ETA (h) (ag); details: read-out: % Inhibition of Control Specific Binding @ 10 μM
T6 construct: expressed in transfected cells; host or cells: CHO cells
T6 sequence (P25101 21-427): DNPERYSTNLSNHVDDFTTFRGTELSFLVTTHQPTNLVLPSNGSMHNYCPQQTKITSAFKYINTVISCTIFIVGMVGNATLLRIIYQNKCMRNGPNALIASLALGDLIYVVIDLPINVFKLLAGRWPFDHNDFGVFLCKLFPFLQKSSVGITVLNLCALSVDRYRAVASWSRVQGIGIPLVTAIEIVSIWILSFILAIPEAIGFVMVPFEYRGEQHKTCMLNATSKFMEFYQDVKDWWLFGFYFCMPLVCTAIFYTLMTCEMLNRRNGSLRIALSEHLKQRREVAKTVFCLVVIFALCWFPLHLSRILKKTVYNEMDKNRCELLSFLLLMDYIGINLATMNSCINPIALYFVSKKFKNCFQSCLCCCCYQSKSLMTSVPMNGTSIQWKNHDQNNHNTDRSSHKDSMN
Description: as §3, §4

tyrosine hydroxylase = molecular target: T7, tyrosine hydroxylase (Rattus norvegicus, UniProt P04177); assay: Enzyme assay tyrosine hydroxylase; type: biochemical; details: read-out: % Inhibition of Control Values @ 10 μM
T7 construct: rat striatum; from tissue; host or cells: rat striatum
T7 sequence (P04177 whole entry): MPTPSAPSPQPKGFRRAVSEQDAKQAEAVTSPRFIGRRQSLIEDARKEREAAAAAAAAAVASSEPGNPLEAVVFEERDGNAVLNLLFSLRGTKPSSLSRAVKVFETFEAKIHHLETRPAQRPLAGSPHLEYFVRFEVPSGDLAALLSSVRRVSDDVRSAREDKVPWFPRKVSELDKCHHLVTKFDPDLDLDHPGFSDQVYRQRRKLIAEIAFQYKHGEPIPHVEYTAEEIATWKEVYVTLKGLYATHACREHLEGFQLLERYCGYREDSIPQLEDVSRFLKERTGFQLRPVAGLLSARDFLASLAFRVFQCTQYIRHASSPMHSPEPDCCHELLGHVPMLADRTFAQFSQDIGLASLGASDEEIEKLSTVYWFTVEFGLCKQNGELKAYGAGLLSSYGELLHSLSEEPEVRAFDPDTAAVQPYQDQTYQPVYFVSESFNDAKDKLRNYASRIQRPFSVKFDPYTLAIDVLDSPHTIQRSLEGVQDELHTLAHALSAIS
Description: as §1, §2

Compound	% Stimulation Relative to Control @ 10 μM (guanylyl cyclase (basal)) [%]	% Inhibition of Control Specific Binding @ 10 μM (Neuropeptide Y (ns)) [%]	% Inhibition of Control Specific Binding @ 10 μM (KV channel) [%]	% Inhibition of Control Specific Binding @ 10 μM [1] [%]	% Inhibition of Control Specific Binding @ 10 μM (Na^+ channel (site 2)) [%]	inhibition at 10 µM (BLT1 (LTB4) (h)) [%]	inhibition at 10 µM (Melanocortin MC4 (h)) [%]	% Inhibition of Control Specific Binding @ 10 μM (Adrenergic α1 (ns)) [%]	inhibition at 10 µM [2] [%]	inhibition at 10 µM (Dopamine D3 (h)) [%]	% Inhibition of Control Specific Binding @ 10 μM (P2Y) [%]	inhibition at 10 µM (Endothelin ETA (h)) [%]	inhibition at 10 µM (tyrosine hydroxylase) [%]
CC1(C)C(=O)N(c2ccc(C#N)c(C(F)(F)F)c2)C(=S)N1c1ccc(C(=O)O)c(F)c1 [(MI), 4-(3-(4-cyano-3-(trifluoromethyl)phenyl)-5,5-dimethyl-4-oxo-2-thioxoimidazolidin-1-yl)-2-fluorobenzoic acid]	0	−6	−2	16	−5	-15	-23	−4	0	7	−19	-21	-4
CC1(C)C(=O)N(c2ccc(C#N)c(C(F)(F)F)c2)C(=S)N1c1ccc(C(N)=O)c(F)c1 [(MII), 4-(3-(4-Cyano-3-(trifluoromethyl)phenyl)-5,5-dimethyl-4-oxo-2-thioxoimidazolidin-1-yl)-2-fluorobenzamide]	0	−6	−3	18	13	-8	-25	−7	-3	11	−2	-16	2
CC1(C)C(=O)N(c2ccc(C#N)c(C(F)(F)F)c2)C(=O)N1c1ccc(C(N)=O)c(F)c1 [(MIII), 4-(3-(4-cyano-3-(trifluoromethyl)phenyl)-5,5-dimethyl-2,4-dioxoimidazolidin-1-yl)-2-fluorobenzamide]	−1	−2	−2	−2	1	-4	-11	−5	-11	0	−1	-12	-2
CNC(=O)c1ccc(N2C(=O)N(c3ccc(C#N)c(C(F)(F)F)c3)C(=O)C2(C)C)cc1F [(MIV), 4-(3-(4-cyano-3-(trifluoromethyl)phenyl)-5,5-dimethyl-2,4-dioxoimidazolidin-1-yl)-2-fluoro-N-methylbenzamide]	2	−2	−4	16	5	-6	-15	−3	-3	7	0	-27	-2
